This note sets out measurements from PubChem BioAssay (NCI).

Some test systems named below: 786-0 renal; SK-MEL-2 melanoma; NCI/ADR-RES ovarian; SF-268 CNS; HCT-116 colon; U251 CNS; HOP-62 NSCLC; A549 NSCLC; DU-145 prostate; SF-539 CNS; COLO 205 colon; CCRF-CEM leukemia; T-47D breast; UACC-62 melanoma; HT29 colon.
Holding throughout (assay): NCI anticancer screen, dose series, 48 h

Values joined by “and” are separate entries in the source; they are usually repeats but may differ in a detail not shown here. Identical values can stand only once.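 Five compound concentrations were applied to cells in 96-well plates for 48 hours; endpoints were derived by simple linear interpolation of the resulting dose-response curve. The concentration for full growth arrest is given as TGI.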 Some results are limits rather than exact numbers.

With `O=c1c2cc(I)ccc2nc(-c2cccs2)n1O`, the TGI in the test with 786-0 renal, in the test on SK-MEL-2 melanoma, in the test with NCI/ADR-RES ovarian, with SF-268 CNS, in the test on HCT-116 colon and in the test on U251 CNS was above 100 µM each time. In addition, the TGI in the test with HOP-62 NSCLC was above 100 µM; in the test with A549 NSCLC, 61.2 µM; in the test on DU-145 prostate, 96.9 µM; with SF-539 CNS, above 100 µM; in the test on COLO 205 colon, above 100 µM; in the test on CCRF-CEM leukemia, 95.2 µM. Further, the TGI was 77.5 µM in the test on T-47D breast, above 100 µM with UACC-62 melanoma and above 100 µM in the test with HT29 colon.
Consider `CCOC(=O)c1cc2c3c(cc(OC)c2[nH]1)N(C(=O)OCC)CC3`, for which the TGI in the test with 786-0 renal, with SK-MEL-2 melanoma, in the test on NCI/ADR-RES ovarian, in the test with SF-268 CNS, in the test with HCT-116 colon and in the test with U251 CNS was above 100 µM in each case. Besides, the TGI in the test on HOP-62 NSCLC, in the test on A549 NSCLC, in the test on DU-145 prostate, in the test on SF-539 CNS, in the test with COLO 205 colon and with CCRF-CEM leukemia was above 100 µM in each case. Moreover, the TGI in the test with T-47D breast, with UACC-62 melanoma and in the test with HT29 colon was above 100 µM each time.
Regarding `Clc1cc2ncn(C3CCCCO3)c2cc1Cl` (centres undefined), the TGI with 786-0 renal, in the test on SK-MEL-2 melanoma, in the test on NCI/ADR-RES ovarian, in the test on SF-268 CNS, in the test on HCT-116 colon and in the test on U251 CNS was above 100 µM each time. For the same compound, the TGI with HOP-62 NSCLC, with A549 NSCLC, with DU-145 prostate, in the test with SF-539 CNS, with COLO 205 colon and in the test with CCRF-CEM leukemia was above 100 µM each time. In addition, the TGI in the test on T-47D breast, in the test with UACC-62 melanoma and in the test with HT29 colon was above 100 µM in each case.
For `CC[C@@]12CCC(=S)N(CCSc3ccccc3)[C@@H]1c1c(n(S(=O)(=O)c3ccc(OC)cc3)c3ccccc13)CC2`, the TGI in the test with 786-0 renal, with SK-MEL-2 melanoma, in the test on NCI/ADR-RES ovarian, in the test on SF-268 CNS, in the test with HCT-116 colon and in the test on U251 CNS was above 100 µM in each case. Besides, the TGI in the test with HOP-62 NSCLC, in the test with A549 NSCLC, in the test with DU-145 prostate, in the test with SF-539 CNS, in the test with COLO 205 colon and in the test on CCRF-CEM leukemia was above 100 µM in each case. For the same compound, the TGI in the test on T-47D breast, with UACC-62 melanoma and in the test on HT29 colon was above 100 µM each time.
Turning to `CCCCCCCc1ccc(-c2nnc(N=Nc3ccc(OCCCCC)cc3)s2)s1`, the TGI in the test with 786-0 renal, in the test on SK-MEL-2 melanoma, in the test on NCI/ADR-RES ovarian, in the test on SF-268 CNS, with HCT-116 colon and in the test with U251 CNS was above 100 µM throughout. In addition, the TGI in the test with HOP-62 NSCLC, in the test with A549 NSCLC, with DU-145 prostate, in the test with SF-539 CNS, in the test on COLO 205 colon and with CCRF-CEM leukemia was above 100 µM throughout. In addition, the TGI in the test with T-47D breast, with UACC-62 melanoma and with HT29 colon was above 100 µM in each case.
With `CCOC(=O)c1cn(CC)c2ccc3c(c2c1=O)S(=O)(=O)C=C3`, the TGI with 786-0 renal, in the test on SK-MEL-2 melanoma, in the test with NCI/ADR-RES ovarian, in the test on SF-268 CNS, in the test on HCT-116 colon and in the test on U251 CNS was above 100 µM throughout. The TGI in the test on HOP-62 NSCLC, in the test on A549 NSCLC, with DU-145 prostate, in the test with SF-539 CNS, in the test on COLO 205 colon and with CCRF-CEM leukemia was above 100 µM each time. In addition, the TGI in the test with T-47D breast, in the test on UACC-62 melanoma and in the test with HT29 colon was above 100 µM each time.
Consider `CCC(=C/[C@H](C)C/C=C/C(C)=C/[C@@H](C)C(=O)[C@@H](C)[C@H](O)[C@@H](C)CC)/C=C/[C@H]1CC=CC(=O)O1`, for which the TGI was 1.26 µM and 10.8 µM in the test with 786-0 renal; below 0.0012 µM in the test on SK-MEL-2 melanoma; 1.65 µM and 0.39 µM in the test on NCI/ADR-RES ovarian; 2.79 µM and 12.2 µM in the test on SF-268 CNS; 0.002 µM in the test with HCT-116 colon; 1.4 µM and 11.6 µM with U251 CNS. Further, the TGI was 2.05 µM and 13 µM in the test with HOP-62 NSCLC; 6.32 µM and 13.5 µM in the test with A549 NSCLC; below 0.0012 µM in the test on DU-145 prostate; 0.174 µM and 1.35 µM in the test on SF-539 CNS; 0.0428 µM with COLO 205 colon; 0.179 µM in the test on CCRF-CEM leukemia. Further, the TGI in the test on T-47D breast is 1.88 µM; with UACC-62 melanoma, 0.00667 µM; with HT29 colon, 2.48 µM and 10.7 µM.
With `CC(NNC(=O)c1ccncc1)c1ccc(Cl)cc1Cl` (centres undefined), the TGI in the test on 786-0 renal, with SK-MEL-2 melanoma, with NCI/ADR-RES ovarian, in the test on SF-268 CNS, in the test with HCT-116 colon and in the test with U251 CNS was above 100 µM each time. For the same compound, the TGI in the test on HOP-62 NSCLC, in the test on A549 NSCLC, with DU-145 prostate, in the test on SF-539 CNS, in the test with COLO 205 colon and with CCRF-CEM leukemia was above 100 µM each time. Moreover, the TGI with T-47D breast, with UACC-62 melanoma and in the test with HT29 colon was above 100 µM throughout.
In the case of `COc1ccc(N=Nc2c(N)nn3c(SC)c(C#N)c(N)nc23)cc1`, the TGI with 786-0 renal was 14.2 µM; in the test with SK-MEL-2 melanoma, 7.12 µM; in the test on NCI/ADR-RES ovarian it was 49.8 µM; in the test with SF-268 CNS, 11.4 µM; in the test on HCT-116 colon it was 28.4 µM; with U251 CNS, 19.5 µM. In addition, the TGI amounted to 44 µM in the test on HOP-62 NSCLC; 36.9 µM in the test with A549 NSCLC; 19.3 µM with DU-145 prostate; 34.6 µM with SF-539 CNS; 26.4 µM in the test with COLO 205 colon; 4.84 µM in the test on CCRF-CEM leukemia. In addition, the TGI was 4.3 µM with T-47D breast, 20.4 µM with UACC-62 melanoma and 25.5 µM with HT29 colon.
Turning to `CC(C)[C@@H]1NC(=O)[C@@H]2N=C(O[C@H]2C)[C@H](C(C)C)NC(=O)C2N=C1O[C@H]2C`, the TGI with 786-0 renal, with SK-MEL-2 melanoma, in the test with NCI/ADR-RES ovarian, in the test with SF-268 CNS, with HCT-116 colon and in the test on HOP-62 NSCLC was above 100 µM each time. Further, the TGI in the test with A549 NSCLC, with DU-145 prostate, with SF-539 CNS, in the test on COLO 205 colon, with CCRF-CEM leukemia and in the test on T-47D breast was above 100 µM in each case. In addition, the TGI in the test on UACC-62 melanoma and in the test with HT29 colon was above 100 µM in each case.
In the case of `CC(=O)NN(c1ccccc1)C1CCN(c2ccccc2)N1C(C)=O` (centres undefined), the TGI in the test with 786-0 renal, in the test with SK-MEL-2 melanoma, in the test on NCI/ADR-RES ovarian, in the test on SF-268 CNS, in the test on HCT-116 colon and with HOP-62 NSCLC was above 10 µM each time. For the same compound, the TGI with A549 NSCLC, with DU-145 prostate, with SF-539 CNS, in the test with COLO 205 colon, in the test on CCRF-CEM leukemia and in the test on T-47D breast was above 10 µM throughout. In addition, in the test with HT29 colon, the TGI is above 10 µM.
For the compound `CC[C@]1(Cc2ccc(OC)c(OC)c2)C=[N+]([O-])O[C@H](OC2CCCC2(c2ccccc2)c2ccccc2)[C@@H]1OC(=O)C(C)(C)C` (some centres undefined), the TGI was 5.31 µM in the test on 786-0 renal; 7.66 µM with SK-MEL-2 melanoma; 5.58 µM with NCI/ADR-RES ovarian; above 32.5 µM with SF-268 CNS; 4.58 µM with HCT-116 colon; above 55.6 µM in the test with U251 CNS. The TGI is 6.93 µM with HOP-62 NSCLC; above 36.6 µM in the test with A549 NSCLC; 4.45 µM with DU-145 prostate; 7.78 µM in the test on COLO 205 colon; above 40.3 µM in the test on CCRF-CEM leukemia; 7.04 µM with T-47D breast. Further, the TGI in the test with UACC-62 melanoma amounted to 17.4 µM; with HT29 colon it was 4.49 µM.
With `CCc1cc2c(c3c1CCCC3=O)CC1(C2)Cc2cc(CC)c3c(c2C1)C(=O)CCC3`, the TGI in the test with 786-0 renal, in the test with SK-MEL-2 melanoma, in the test on NCI/ADR-RES ovarian, with SF-268 CNS, with HCT-116 colon and in the test on U251 CNS was above 100 µM in each case. For the same compound, the TGI in the test on HOP-62 NSCLC, in the test on A549 NSCLC, in the test on DU-145 prostate, with SF-539 CNS, in the test with COLO 205 colon and in the test on CCRF-CEM leukemia was above 100 µM in each case. In addition, the TGI in the test with T-47D breast and with HT29 colon was above 100 µM in each case.
Take `CC(=O)N1c2cc(N=NN(C)C)ccc2NC(=O)CC1C` (centres undefined): the TGI in the test with 786-0 renal, in the test with SK-MEL-2 melanoma, with NCI/ADR-RES ovarian, with SF-268 CNS, with HCT-116 colon and in the test on U251 CNS was above 100 µM throughout. Moreover, the TGI in the test with HOP-62 NSCLC, in the test on A549 NSCLC, in the test with DU-145 prostate, in the test with COLO 205 colon, with CCRF-CEM leukemia and in the test on T-47D breast was above 100 µM in each case. Moreover, the TGI with UACC-62 melanoma and in the test with HT29 colon was above 100 µM throughout.
